Experimental data reported in patent publication US20090208979A1, “Method for identifying antipsychotic drug candidates” (priority 2008, published 2009).
Read-outs that look alike come from different tables or passages of the source.

Columns and labels:
[1] = tested on: negative symptoms of schizophrenia; conditions: add-on to antipsychotic treatment; clinical studies; cited from earlier work
PKCβ2 [2] = type: cell-based, rat
GAD67 = type: cell-based, rat; conditions: whole cell lysates, vs control
ERK2 = conditions: whole cell lysates, normalized to total ERK2, vs control; for reduction of ERK2 phosphorylation: acute treatment, 15 minutes; for increase of ERK2 phosphorylation: chronic treatment, 7 days
GAD67 mRNA = type: in vivo, rat; conditions: rats, 14 days daily IP (haloperidol 1 mg/kg, fluvoxamine 10 mg/kg, clozapine 10 mg/kg); frontal cortex; vs control
PKCβ2 [3] = type: in vivo, rat; conditions: rats, chronic 14 days IP; frontal cortex; vs control
PKC [4] = tested on: PKC
PKC [5] = tested on: PKC; remark: listed apart in the source
[6] = rats; haloperidol 1 mg/kg and fluvoxamine 10 mg/kg IP; cited from earlier work
PKCβ2 [7] = conditions: rat, in vivo, ip
[8] = chronic treatment, 7 days, whole cell lysates, vs control
[9] = rats, 14 days daily IP (haloperidol 1 mg/kg, fluvoxamine 10 mg/kg, clozapine 10 mg/kg), frontal cortex, vs control
[10] = rats, chronic 14 days IP, frontal cortex, vs control

Compound: CNCCCC12CCC(c3ccccc31)c1ccccc12 [maprotiline]
- effect on negative symptoms of schizophrenia [1]: did not improve negative symptoms

Compound: CN1CCN(C2=Nc3cc(Cl)ccc3Nc3ccccc32)CC1 [clozapine]
- decrease of PKCβ2 protein level (PKCβ2 [2]; acute treatment, 15 minutes, whole cell lysates, vs control): 31%
- decrease of PKCβ2 protein level (PKCβ2 [2]; [8]): 60%
- decrease of GAD67 protein level (GAD67; acute treatment, 15 minutes): 25%
- decrease of GAD67 protein level (GAD67; chronic treatment, 7 days): 73%
- reduction of ERK2 phosphorylation (ERK2): 67%
- increase of ERK2 phosphorylation (ERK2): 87%

Compound: O=C(CCCN1CCC(O)(c2ccc(Cl)cc2)CC1)c1ccc(F)cc1 [haloperidol]
- GAD67 mRNA level (GAD67 mRNA): significantly increased
- PKCβ2 protein level, whole tissue lysate (PKCβ2 [3]): significantly increased
- increase of PKCβ2 protein level (PKCβ2 [2]; [8]): 106%
- decrease of GAD67 protein level (GAD67; acute treatment, 15 minutes): did not affect
- decrease of GAD67 protein level (GAD67; chronic treatment, 7 days): did not affect
- PKCβ mRNA level (PKCβ mRNA; [9]): significantly increased
- PKCγ mRNA level (PKCγ mRNA; [9]): significantly increased
- increase of PKC phosphorylation in the membranal fraction (PKC [4]; [10]): 45%
- increase of PKC phosphorylation in whole lysate (PKC [4]; [10]): 38%
- increase of PKC phosphorylation level (PKC [5]; 15 minutes treatment (FIG. 11A), whole cell lysates, normalized to β-actin, vs control): 134%
- reduction of ERK2 phosphorylation (ERK2): did not alter
- increase of ERK2 phosphorylation (ERK2): did not alter
- brain and serum concentrations when coadministered compared with given individually [6]: not significantly changed

Compound: COCCCC/C(=N\OCCN)c1ccc(C(F)(F)F)cc1 [fluvoxamine]
- PKCβ2 level, cytosolic compartment (PKCβ2 [7]): reduced level
- increase of PKCβ2 protein level (PKCβ2 [2]): did not affect
- decrease of GAD67 protein level (GAD67; chronic treatment, 7 days): 60%
- PKCβ mRNA level (PKCβ mRNA; rat, in vivo): increased significantly
- PKCγ mRNA level (PKCγ mRNA; rat, in vivo): increased significantly
- increase of PKC phosphorylation in the membranal fraction (PKC [4]; rat, in vivo, ip): 50%
- increase of PKC phosphorylation in whole lysate (PKC [4]; rat, in vivo, ip): 40%
- increase of PKC phosphorylation level (PKC [5]): 156%
